# Experimental data reported in patent publication US20060270591A1, “Androgen receptor coregulators” (priority 2002, published 2006).
# Legend:
# AR [1] = assay: AR transactivation reporter assay (CAT/LUC) with ARA267 (Example 4); format: cell-based, human
# Method: (§1) 444. Human prostate cancer cell line PC-3 and DU145, lung cancer cell line H1299, and hepatoma cell line HepG2 were grown in DMEM-10% FCS. For transfection the cells were plated in 60-mm dishes and experiments performed by modified calcium phosphate technique as previously described (Yeh et al. Proc. Natl. Acad. Sci. U.S.A. (1996) 93, 5517-5521). After incubation for 24 h, the cells were treated with steroid hormones for another 24 h, then harvested for the chloramphenicol acetyltransferase (CAT) assay. Mouse mammary tumor virus-(MMTV)-CAT reporter gene was used to measure AR transcription activity, and a β-Galactosidase expression gene (pCMV-O-gal) was incorporated into the experiments as an internal control (Yeh et al. Proc. Natl. Acad. Sci. U.S.A. (1996) 93, 5517-5521). CAT activity was visualized by a PhosphorImager (Molecular Dynamics) and quantitated by IMAGEQUANT software (molecular Dynamics). For Luciferase (LUC) assay, pG5-LUC, pMMTV-LUC or estrogen response element (ERE)-LUC plasmid was used as the reporter gene and SV40-PRL (promega) was used as an internal control. Dual-luciferase Reporter 1000 Assay System (promega) was employed to measure the luciferase activity.
# ER = biological target: T1, ER (Homo sapiens, UniProt P03372); assay: ER transactivation luciferase assay with ARA267; format: cell-based; set-up: expressed in transfected cells; host or cells: DU145, HepG2, PC3; details: HepG2 cells
# T1 sequence (P03372 1-595): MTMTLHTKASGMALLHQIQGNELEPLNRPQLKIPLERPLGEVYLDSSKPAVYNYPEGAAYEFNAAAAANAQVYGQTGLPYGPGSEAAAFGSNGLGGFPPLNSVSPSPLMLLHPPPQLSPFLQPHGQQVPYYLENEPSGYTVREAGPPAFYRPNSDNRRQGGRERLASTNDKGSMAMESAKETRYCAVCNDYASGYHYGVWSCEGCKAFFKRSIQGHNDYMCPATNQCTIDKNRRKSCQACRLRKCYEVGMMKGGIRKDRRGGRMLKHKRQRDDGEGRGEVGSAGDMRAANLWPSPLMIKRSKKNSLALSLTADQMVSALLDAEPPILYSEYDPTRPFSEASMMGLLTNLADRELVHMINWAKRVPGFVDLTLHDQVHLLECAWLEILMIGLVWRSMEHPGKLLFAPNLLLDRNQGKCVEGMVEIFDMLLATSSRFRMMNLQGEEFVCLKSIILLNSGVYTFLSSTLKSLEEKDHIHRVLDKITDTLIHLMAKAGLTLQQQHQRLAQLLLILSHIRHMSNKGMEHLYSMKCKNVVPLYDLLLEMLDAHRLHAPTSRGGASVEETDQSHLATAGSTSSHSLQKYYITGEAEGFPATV
# Method: (§2) 31. […] The luciferase activity of each receptor without ARA267 and ligands was set as one fold. All values represent the mean SD of three independent experiments.
# as §1
# PSA = assay: Western blot of PSA in LNCaP cells transfected with ARA267; format: cell-based, human; details: 10 nM DHT
# Method: 447. LNCaP cells were transfected with pSG5ARA267 and pSG5 vector by Superfect (Qiagen) respectively. […] The cells were harvested and lysed following the protocol from Santa Cruz Biotechnology. In each sample, 50 μg whole-cell lysis proteins were separated on 10% SDS-polyacrylamide gel. After transfering, the membrane was blotted with polyclonal AR antibody (NH27), PSA antibody (Dako Corporation), and β-actin antibody (Santa Cruz Biotechnology). The bands were developed with an alkaline phosphatase detection kit (Bio-Rad).
# GR = biological target: T2, GR (Homo sapiens, UniProt P04150); assay: GR transactivation luciferase assay with ARA267; format: cell-based; set-up: expressed in transfected cells; host or cells: DU145, PC-3, HepG2; details: HepG2 cells
# T2 sequence (P04150 1-777): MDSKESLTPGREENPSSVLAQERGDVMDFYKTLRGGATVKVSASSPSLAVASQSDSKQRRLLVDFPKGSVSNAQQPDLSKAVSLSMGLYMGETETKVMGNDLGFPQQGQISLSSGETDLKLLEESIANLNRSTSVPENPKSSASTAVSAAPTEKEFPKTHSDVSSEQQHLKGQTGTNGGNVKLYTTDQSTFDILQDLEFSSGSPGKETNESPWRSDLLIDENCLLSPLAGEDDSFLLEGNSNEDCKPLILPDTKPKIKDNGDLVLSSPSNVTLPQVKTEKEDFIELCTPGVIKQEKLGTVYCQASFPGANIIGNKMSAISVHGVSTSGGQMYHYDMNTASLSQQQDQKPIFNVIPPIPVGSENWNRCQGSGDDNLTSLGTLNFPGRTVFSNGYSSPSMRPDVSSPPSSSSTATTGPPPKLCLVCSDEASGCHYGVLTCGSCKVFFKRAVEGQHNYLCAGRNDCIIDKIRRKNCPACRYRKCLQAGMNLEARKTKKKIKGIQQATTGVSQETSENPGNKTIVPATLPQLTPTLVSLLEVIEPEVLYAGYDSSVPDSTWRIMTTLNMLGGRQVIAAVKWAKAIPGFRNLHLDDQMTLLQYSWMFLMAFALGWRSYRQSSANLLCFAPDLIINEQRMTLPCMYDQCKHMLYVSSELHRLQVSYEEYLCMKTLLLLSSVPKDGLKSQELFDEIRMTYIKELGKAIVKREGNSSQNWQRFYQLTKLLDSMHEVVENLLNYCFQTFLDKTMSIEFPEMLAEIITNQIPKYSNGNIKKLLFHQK
# Method: as §2, §1
# mtARt877s and gelsolin = mtARt877s and gelsolin (Homo sapiens, UniProt P10275, T878S); details: 10 μM HF, 100 nM DHT, 1 μM E2, 1 μM P; compared to EtOH
# Source text: Y190 yeast cells were transformed with pAS2-mtARt877s (aa 595-918) and pATC2-gelsolin (aa 281-731).
# wtAR and gelsolin = wtAR and gelsolin (Homo sapiens, UniProt P10275); details: COS-7 cells; T 10 nM; HF 1 μM
# AR [2] = assay: AR reporter gene assay with gelsolin (Example 5); format: cell-based, human; details: 100 nM HF; normal 10% FCS medium; no gelsolin
# Source text: 468. A C-terminal fragment of gelsolin (aa 281-731) was isolated from pACT2 encoding gelsolin, and inserted into pSG5-Gal4 DNA-binding domain (DBD) (constructed by Dr. R. Nakao). AR fragment (aa 36-918) was inserted into pCMX-VP16 (a gift from Dr. D. Chen). For gelsolin expression vector, a full-length cDNA fragment of gelsolin from LKCG, a gift from Dr. D. Kwiatkowski (Northwestern University, Evanston, Ill.), was inserted into pSG5. Dr. M. L. Lu (Harvard Medical School, Boston, Mass.) provided the p (ARE) 4-luciferase (LUC) plasmid. Dr. A. Mizokami (University of Kanazawa, Kanazawa, Japan) provided the pGL3-PSA6.0LUC plasmid. The expression plasmids of AR peptides were constructed by inserting the PCR amplified cDNA fragment of AR DBD into pFlag-CMV (Sigma) and the fragments of AR LBD into pCDNA-flag plasmid. Transfection protocol and reporter gene assay were described in previous report (Ting et al. Proc Natl Acad Sci USA 99, 661-666 (2002)).
effect on the transactivation of ER (ER),effect on the transactivation of GR (GR),interaction between mtARt877s and gelsolin (β-gal activity) (mtARt877s and gelsolin),interaction between wtAR and gelsolin (wtAR and gelsolin),Molecule,effect on AR transactivation (AR [1]; 10 nM E2),"effect on DHT-mediated AR transactivation (AR [1]; PC-3 cells, MMTV-CAT)",effect on DHT-induced PSA protein expression (PSA),inhibition of AR transactivation (AR [2])
marginal effect,marginal effect,,,"ARA267: AR coregulator of 2427 amino acids containing a SET domain, calculated molecular weight 267 kD",marginal effects,enhance DHT-mediated AR transactivation in a dose-dependent manner,enhance DHT-induced PSA protein expression,
,,promoted significant interaction,induced significant interaction,"CC(C)(O)C(=O)Nc1ccc([N+](=O)[O-])c(C(F)(F)F)c1 [HF, hydroxyflutamide]",,,,80%
